Reference: ChEMBL document CHEMBL1201862, “PubChem BioAssay data set” (2004)
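Tested at 5 concentrations; 48 h exposure; 96-well plates; endpoints linearly interpolated, else capped at highest concentration. GI50 marks 50% less growth.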 Calls of active or inactive are those of the source. Cut-off read from the data, not from the text of the source: active = GI50 up to about 1.1 µM and inactive = higher.

Assays:
Assay in all cases: DTP human tumour cell line panel, 48 h
M14 = test system: M14
OVCAR-5 = test system: OVCAR-5
HCT-116 = test system: HCT-116
NCI-H522 = test system: NCI-H522
RPMI-8226 = test system: RPMI-8226
SF-539 = test system: SF-539
Malme-3M = test system: Malme-3M
SN12C = test system: SN12C
HCT-15 = test system: HCT-15
CCRF-CEM = test system: CCRF-CEM
CAKI-1 = test system: CAKI-1
HOP-62 = test system: HOP-62
LOX IMVI = test system: LOX IMVI
IGROV-1 = test system: IGROV-1
COLO 205 = test system: COLO 205
HL-60 = test system: HL-60

## COc1ccc(CC2c3c(cc(OC)c(OC)c3OC)CCN2C)cc1OC (stereo not given)
M14
  GI50: > 100 µM (inactive)
OVCAR-5
  GI50: > 100 µM (inactive)
HCT-116
  GI50: > 100 µM (inactive)
NCI-H522
  GI50: > 100 µM (inactive)
RPMI-8226
  GI50: > 100 µM (inactive)
SF-539
  GI50: > 100 µM (inactive)
Malme-3M
  GI50: > 100 µM (inactive)
SN12C
  GI50: > 100 µM (inactive)
HCT-15
  GI50: > 100 µM
CCRF-CEM
  GI50: > 100 µM (inactive)
CAKI-1
  GI50: > 100 µM (inactive)
HOP-62
  GI50: > 100 µM (inactive)

## CN1C/C(=C\C=C\c2ccccc2)C(=O)/C(=C/C=C/c2ccccc2)C1
M14
  GI50: > 100 µM (inactive)
OVCAR-5
  GI50: > 100 µM (inactive)
HCT-116
  GI50: > 100 µM (inactive)
LOX IMVI
  GI50: > 100 µM (inactive)
NCI-H522
  GI50: 54 µM (inactive)
RPMI-8226
  GI50: > 100 µM (inactive)
IGROV-1
  GI50: > 100 µM (inactive)
SF-539
  GI50: > 100 µM (inactive)
Malme-3M
  GI50: > 100 µM (inactive)
COLO 205
  GI50: > 100 µM (inactive)
SN12C
  GI50: > 100 µM (inactive)
HCT-15
  GI50: > 100 µM
CCRF-CEM
  GI50: 35.9 µM (inactive)
CAKI-1
  GI50: > 100 µM (inactive)
HOP-62
  GI50: > 100 µM (inactive)

## CCc1cccc(C)c1NS(=O)(=O)c1ccccc1
M14
  GI50: > 100 µM (inactive)
OVCAR-5
  GI50: > 100 µM (inactive)
HCT-116
  GI50: > 100 µM (inactive)
RPMI-8226
  GI50: > 100 µM (inactive)
IGROV-1
  GI50: > 100 µM (inactive)
SF-539
  GI50: > 100 µM (inactive)
HL-60
  GI50: > 100 µM (inactive)
Malme-3M
  GI50: > 100 µM (inactive)
HCT-15
  GI50: > 100 µM
CCRF-CEM
  GI50: > 100 µM (inactive)
CAKI-1
  GI50: > 100 µM (inactive)
HOP-62
  GI50: > 100 µM (inactive)

## O=C(c1ccccc1)[C@H]1Nc2ccc(Cl)cc2C2c3ccccc3CC21 (stereo not given in full)
M14
  GI50: 31.6 µM (inactive)
OVCAR-5
  GI50: > 100 µM (inactive)
HCT-116
  GI50: 26 µM (inactive)
LOX IMVI
  GI50: 50.4 µM (inactive)
NCI-H522
  GI50: 95.3 µM (inactive)
RPMI-8226
  GI50: > 100 µM (inactive)
IGROV-1
  GI50: > 100 µM (inactive)
SF-539
  GI50: > 100 µM (inactive)
Malme-3M
  GI50: > 10 µM (inactive)
COLO 205
  GI50: 41.1 µM (inactive)
SN12C
  GI50: 83.2 µM (inactive)
HCT-15
  GI50: 60 µM
CAKI-1
  GI50: > 100 µM (inactive)
HOP-62
  GI50: 46.1 µM (inactive)

## N#Cc1ccc(/C=N\N2C(=O)c3ccccc3C2=O)cc1
M14
  GI50: > 100 µM (inactive)
OVCAR-5
  GI50: > 100 µM (inactive)
HCT-116
  GI50: > 100 µM (inactive)
LOX IMVI
  GI50: > 100 µM (inactive)
RPMI-8226
  GI50: > 100 µM (inactive)
IGROV-1
  GI50: > 100 µM (inactive)
SF-539
  GI50: > 100 µM (inactive)
HL-60
  GI50: > 100 µM (inactive)
Malme-3M
  GI50: > 100 µM (inactive)
SN12C
  GI50: > 100 µM (inactive)
HCT-15
  GI50: > 100 µM
CCRF-CEM
  GI50: > 100 µM (inactive)
CAKI-1
  GI50: > 100 µM (inactive)
HOP-62
  GI50: > 100 µM (inactive)

## Cc1cc(C)c(/C=N/NS(=O)(=O)c2ccccc2)c(C)c1
M14
  GI50: > 100 µM (inactive)
OVCAR-5
  GI50: > 100 µM (inactive)
HCT-116
  GI50: > 100 µM (inactive)
LOX IMVI
  GI50: > 100 µM (inactive)
RPMI-8226
  GI50: 54.5 µM (inactive)
IGROV-1
  GI50: > 100 µM (inactive)
SF-539
  GI50: 66.8 µM (inactive)
HL-60
  GI50: 91.6 µM (inactive)
Malme-3M
  GI50: > 100 µM (inactive)
COLO 205
  GI50: > 100 µM (inactive)
SN12C
  GI50: 92.3 µM (inactive)
HCT-15
  GI50: > 100 µM
CCRF-CEM
  GI50: 62.8 µM (inactive)
CAKI-1
  GI50: 76.6 µM (inactive)
HOP-62
  GI50: > 100 µM (inactive)

## COc1cc(=O)oc(/C=C/CO)c1C
M14
  GI50: > 100 µM (inactive)
OVCAR-5
  GI50: > 100 µM (inactive)
HCT-116
  GI50: > 100 µM (inactive)
LOX IMVI
  GI50: > 100 µM (inactive)
NCI-H522
  GI50: 28.9 µM (inactive)
IGROV-1
  GI50: > 100 µM (inactive)
SF-539
  GI50: > 100 µM (inactive)
HL-60
  GI50: > 100 µM (inactive)
Malme-3M
  GI50: > 100 µM (inactive)
COLO 205
  GI50: > 100 µM (inactive)
SN12C
  GI50: > 100 µM (inactive)
CCRF-CEM
  GI50: > 100 µM (inactive)
CAKI-1
  GI50: > 100 µM (inactive)
HOP-62
  GI50: > 100 µM (inactive)

## COc1ccc2nc3cc(Cl)ccc3c(Sc3ccccc3[N+](=O)[O-])c2c1
M14
  GI50: > 100 µM (inactive)
OVCAR-5
  GI50: > 100 µM (inactive)
HCT-116
  GI50: > 100 µM (inactive)
LOX IMVI
  GI50: > 100 µM (inactive)
NCI-H522
  GI50: > 100 µM (inactive)
IGROV-1
  GI50: > 100 µM (inactive)
SF-539
  GI50: 58.1 µM (inactive)
Malme-3M
  GI50: > 100 µM (inactive)
COLO 205
  GI50: 17.3 µM (inactive)
SN12C
  GI50: 28.1 µM (inactive)
HCT-15
  GI50: > 100 µM
CCRF-CEM
  GI50: > 100 µM (inactive)
CAKI-1
  GI50: > 100 µM (inactive)
HOP-62
  GI50: 69 µM (inactive)
